Assay: Hydrolysis kinetics of the ester linkages of mPEG-O-(CH2)n-COO-mPEG in buffer, followed by HPLC-GPC
Format: physicochemical
Method: To precisely measure the hydrolysis kinetics of the ester linkages, water-soluble, non-crosslinked mPEG-O—(CH2)n—COO-MPEG was synthesized as in Example 2. Hydrolysis was carried out in buffer solutions (0.1 M) at different pHs and temperatures, and followed by HPLC-GPC (Ultrahydrogel® 250, Waters).

Substance: mPEG-O-(CH2)n-COO-mPEG [CM ester linkage]
- Hydrolysis half lives of the ester (pH 5.5): >150 days
- Hydrolysis half lives of the ester (pH 8.1): 5 days

From patent US7018624B2, “Delivery of poly(ethylene glycol)-modified molecules from degradable hydrogels” (Debio Recherche Pharmaceutique S.A., priority 1996, dated 2006)
